19 compounds from patent US12390437B2, “Itaconic acid derivatives and uses thereof intreating an inflammatory disease or a disease associated with an undesirable immune response” (Sitryx Therapeutics Limited, priority 2019, dated 2025) can be followed below.

Data set [1] concerns NRF2. In words: NRF2 +/-GSH activation assay (DiscoverX PathHunter NRF2 translocation kit, U2OS cells). The data set is classed as cell-based. To be noted: Homo sapiens. In short, it runs like this:
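PathHunter U2OS cells, plated 24 hrs, measured NRF2 nuclear translocation by enzyme-fragment complementation luminescence after 6 hours compound exposure at 37 °C. For +GSH, compound was pre-incubated 30 minutes with GSH (6 mM working stock). EC50 from % activation normalised to dimethyl fumarate high control.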

The nature of data set [2]: Hepatocyte stability assay (human). The data set is classed as in vitro ADME. Particulars: cryopreserved hepatocytes, 10 μM compound, 0.5×10^6 cells/mL, 60 minutes, read-out: T½. An excerpt:
(§1) Defrosted cryo-preserved hepatocytes (viability >70%) are used to determine the metabolic stability of a compound via calculation of intrinsic clearance (Clint; a measure of the removal of a compound from the liver in the absence of blood flow and cell binding). Clearance data are particularly important for in vitro work as they can be used in combination with in vivo data to predict the half-life and oral bioavailability of a drug.
(§2) The metabolic stability in hepatocytes assay involves a time-dependent reaction using both positive and negative controls. The cells must be pre-incubated at 37° C. then spiked with test compound (and positive control); samples taken at pre-determined time intervals are analysed to monitor the change in concentration of the initial drug compound over 60 minutes. A buffer incubation reaction (with no hepatocytes present) acts as a negative control and two cocktail solutions, containing compounds with known high and low clearance values (verapamil/7-hydroxycoumarin and propranolol/diltiazem), act as positive controls. • 1. The assay is run with a cell concentration of 0.5×10^6 cells/mL in Leibovitz buffer. • 2. All compounds and controls are run in duplicate. • 3. Compound concentration is 10 μM. • 4. All compounds and controls are incubated with both cells and buffer to show turnover is due to hepatic metabolism. • 5. All wells on the incubation plate will have 326.7 μL of either cells or buffer added. • 6. Prior to assay, cell and buffer-only incubation plates are preincubated for 10 mins at 37° C. • 7. The assay is initiated by adding compounds, 3.3 μL of 1 mM in 10% DMSO-90% Buffer; final DMSO concentration is 0.1%. • 8. Samples are taken at regular timepoints (0, 5, 10, 20, 40, 60 min) until 60 mins. • 9. Sample volume is 40 μL and it is added to 160 μL of crash solvent (acetonitrile with internal standard) and stored on ice. • 10. At the end of the assay, the crash plates are centrifuged at 3500 rpm for 20 mins at 4° C. • 11. 80 μL of clear supernatant is removed and mixed with 80 μL of deionised water before being analysed by LC-MS/MS.
(§3) Raw LC-MS/MS data are exported to, and analysed in, Microsoft Excel for determination of intrinsic clearance. The percentage remaining of a compound is monitored using the peak area of the initial concentration as 100%. Intrinsic clearance and half-life values are calculated using a graph of the natural log of percentage remaining versus the time of reaction in minutes. Half-life (min) and intrinsic clearance (Clint in μL min^−1 10^−6 cells) values are calculated using the gradient of the graph (the elimination rate constant, k) and Equations 1 and 2.

In data set [3] the test system is hepatocytes. Kind of data set: Hepatocyte stability assay (human). The data set is classed as in vitro ADME. To be noted: 10 μM compound, 0.5×10^6 cells/mL, 60 minutes.
Text: as §1, §2, §3

Data set [4] can be described thus: Hepatocyte stability assay (mouse). The data set is classed as in vitro ADME. Particulars: cryopreserved hepatocytes, 10 μM compound, 0.5×10^6 cells/mL, 60 minutes, read-out: T½.
Text: as §1, §2, §3

Data set [5] deals with hepatocytes. In words: Hepatocyte stability assay (mouse). The data set is classed as in vitro ADME. To be noted: 10 μM compound, 0.5×10^6 cells/mL, 60 minutes.
Text: as §1, §2, §3

Setting [6] is: U2OS, normalised to dimethyl fumarate 'High' control, GSH condition not stated in Table 5, read-out: NRF2 activation Emax.
The mark [7] stands for this setting: U2OS PathHunter cells, 6 hours, GSH condition not stated in Table 5, read-out: NRF2 activation EC50.
The mark [8] stands for this setting: U2OS, Table 10, assay of Biological Example 5 (NRF2), read-out: EC50.
[9] abbreviates: U2OS, Table 10, assay of Biological Example 5 (NRF2), read-out: Emax.

Counter-ions that a name gives are not always drawn. Like-named read-outs stand apart in the source and are kept apart here.

`C=C(CC(=O)OC1CCCCCCC1)C(=O)OC(C)c1nnn[nH]1` (stereo not shown) [Example 133, 1-(1-(1H-tetrazol-5-yl)ethyl) 4-cyclooctyl 2-methylenesuccinate]: the Emax (in general, the size of the effect at its maximum, as opposed to the concentration needed) in data set [1] (setting [6]) is 227%. Also, the EC50 (commonly the concentration giving half of the maximal effect) in data set [1] (setting [7]) was 33.3 µM. Moreover, the half-life at 10 μM in data set [2] was determined as 30 min; in data set [4], 14 min. Moreover, the “CIint (μL min^−1 10^−6 cells)” value in data set [3] came to 48 μL min^−1 10^−6 cells; in data set [5], 107 μL min^−1 10^−6 cells.

Regarding `C=C(CC(=O)OCCCCCCCC)C(=O)OCCC#N` [Example 1, 1-(2-cyanoethyl) 4-octyl 2-methylenesuccinate], the Emax in data set [1] (setting [6]) was 134%. Further, the EC50 in data set [1] (setting [7]) came out at 8.8 µM.

Regarding `C=C(CC(=O)O[C@H](C)CCCCCC)C(=O)OCC(=O)O` [Example 112, (R)-2-((2-methylene-4-(octan-2-yloxy)-4-oxobutanoyl)oxy)acetic acid], the EC50 in data set [1] (setting [8]) and in data set [1] (setting [7]) was 8.9 µM in each case. Also, the Emax in data set [1] (setting [9]) and in data set [1] (setting [6]) was 173% each time. Moreover, the half-life at 10 μM in data set [2] was 25 min; in data set [4], 13 min. Also, the “CIint (μL min^−1 10^−6 cells)” value in data set [3] was 65 μL min^−1 10^−6 cells; in data set [5], 255 μL min^−1 10^−6 cells.

Take `C=C(CC(=O)OC1CCCCC1)C(=O)OCc1nnn[nH]1` [Example 125, 1-((2H-tetrazol-5-yl)methyl) 4-cyclohexyl 2-methylenesuccinate]: the Emax in data set [1] (setting [6]) was 116%. Besides, the EC50 in data set [1] (setting [7]) worked out at 38.3 µM. Further, the figures for the half-life at 10 μM in data set [2] and in data set [4] were 198 min and 16 min, respectively. The “CIint (μL min^−1 10^−6 cells)” value in data set [3] was 9 μL min^−1 10^−6 cells; in data set [5] it was 101 μL min^−1 10^−6 cells.

Regarding `C=C(CC(=O)OC(C)(C)CCCCCC)C(=O)OCC(=O)O` [Example 192, 2-((2-methylene-4-((2-methyloctan-2-yl)oxy)-4-oxobutanoyl)oxy)acetic acid], the Emax in data set [1] (setting [6]) stood at 194%. Also, the concentration giving a half-maximal response (EC50) in data set [1] (setting [7]) was 11.8 µM. Also, the half-life at 10 μM in data set [2] is 54 min; in data set [4], 5 min. Also, the “CIint (μL min^−1 10^−6 cells)” value is reported as 32 μL min^−1 10^−6 cells in data set [3] and 350 μL min^−1 10^−6 cells in data set [5].

Regarding `C=C(CC(=O)OC1CCCCC1)C(=O)OCC(=O)O` [Example 91, 2-((4-(cyclohexyloxy)-2-methylene-4-oxobutanoyl)oxy)acetic acid], the Emax in data set [1] (setting [6]) worked out at 73%. In addition, the EC50 in data set [1] (setting [7]) was 10.1 µM. Also, the half-life at 10 μM in data set [2] was 352 min; in data set [4] it was 48 min. Besides, the results for the “CIint (μL min^−1 10^−6 cells)” value in data set [3] and in data set [5] were 4 μL min^−1 10^−6 cells and 29 μL min^−1 10^−6 cells, respectively.

Regarding `C=C(CC(=O)OC1CCCCCCC1)C(=O)OCCC(=O)O` [Example 82, 3-((4-(cyclooctyloxy)-2-methylene-4-oxobutanoyl)oxy)propanoic acid], the Emax in data set [1] (setting [6]) is 164%. For the same compound, the EC50 in data set [1] (setting [7]) came to 26.5 µM. The half-life at 10 μM turned out to be 91 min in data set [2] and 27 min in data set [4]. Besides, the “CIint (μL min^−1 10^−6 cells)” value is listed as 15 μL min^−1 10^−6 cells in data set [3] and 52 μL min^−1 10^−6 cells in data set [5].

Turning to `C=C(CC(=O)OC1C(C)(C)CC1(C)C)C(=O)OCC(=O)O` [Example 169, 2-((2-methylene-4-oxo-4-(2,2,4,4-tetramethylcyclobutoxy)butanoyl)oxy) acetic acid], the half-life at 10 μM in data set [2] is 268 min; in data set [4], 34 min. The “CIint (μL min^−1 10^−6 cells)” value amounted to 5 μL min^−1 10^−6 cells in data set [3] and 38 μL min^−1 10^−6 cells in data set [5].

Regarding `C=C(CC(=O)O[C@H](C)CCCCCC)C(=O)OCCC(=O)O` [Example 88, (R)-3-((2-methylene-4-(octan-2-yloxy)-4-oxobutanoyl)oxy)propanoic acid], in data set [1] (setting [6]), the Emax worked out at 139%. In addition, the EC50 in data set [1] (setting [7]) turned out to be 3.2 µM. Further, the half-life at 10 μM in data set [2] was 13 min; in data set [4] it was 7 min. In addition, the “CIint (μL min^−1 10^−6 cells)” value came out at 134 μL min^−1 10^−6 cells in data set [3] and 297 μL min^−1 10^−6 cells in data set [5].

Consider `C=C(CC(=O)OC1CCCCCCC1)C(=O)OCC(=O)O` [Example 90, 2-((4-(cyclooctyloxy)-2-methylene-4-oxobutanoyl)oxy)acetic acid], for which, in data set [1] (setting [6]), the Emax is 157%. For the same compound, the EC50 in data set [1] (setting [7]) was 29.4 µM. For the same compound, the half-life at 10 μM in data set [2] stood at 183 min; in data set [4], 30 min. Besides, the “CIint (μL min^−1 10^−6 cells)” value in data set [3] came to 8 μL min^−1 10^−6 cells; in data set [5], 47 μL min^−1 10^−6 cells.

`C=C(CC(=O)O[C@H](C)CCCCCC)C(=O)OCc1nn[nH]n1` [Example 161, (R)-1-((2H-tetrazol-5-yl)methyl) 4-(octan-2-yl) 2-methylenesuccinate]: the Emax in data set [1] (setting [6]) came to 146%. In addition, the half-maximal effective concentration (EC50) in data set [1] (setting [7]) was 5 µM. For the same compound, the results for the half-life at 10 μM in data set [2] and in data set [4] were 22 min and under 3 min, respectively. Also, the “CIint (μL min^−1 10^−6 cells)” value is 55 μL min^−1 10^−6 cells in data set [3] and over 460 μL min^−1 10^−6 cells in data set [5].

In the case of `C=C(CC(=O)O[C@@H](CC)CCCCC)C(=O)OCC(=O)O` [Example 170, (S)-2-(2-methylene-4-(octan-3-yloxy)-4-oxobutanoyloxy)acetic acid], the figures for the half-life at 10 μM in data set [2] and in data set [4] were 120 min and 20 min, respectively. Further, the “CIint (μL min^−1 10^−6 cells)” value in data set [3] was 12 μL min^−1 10^−6 cells; in data set [5] it was 64 μL min^−1 10^−6 cells.

For `C=C(CC(=O)O[C@H](CC)CCCCC)C(=O)OCC(=O)O` [Example 178, (R)-2-(2-methylene-4-(octan-3-yloxy)-4-oxobutanoyloxy)acetic acid], the Emax in data set [1] (setting [6]) is 188%. In addition, the EC50 in data set [1] (setting [7]) was 14.3 µM.

For `C=C(CC(=O)OCCCCCCCC)C(=O)OCCS(C)(=O)=O` [Example 2, 1-(2-(methylsulfonyl)ethyl) 4-octyl 2-methylenesuccinate], the Emax in data set [1] (setting [6]) was 268%. Also, the EC50 in data set [1] (setting [7]) came to 5.1 µM.

Turning to `C=C(CC(=O)OC(C)(C)CCCCC)C(=O)OCC(=O)O` [Example 193, 2-((2-methylene-4-((2-methylheptan-2-yl)oxy)-4-oxobutanoyl)oxy)acetic acid], the half-life at 10 μM was determined as 109 min in data set [2] and 22 min in data set [4]. In addition, the figures for the “CIint (μL min^−1 10^−6 cells)” value in data set [3] and in data set [5] were 16 μL min^−1 10^−6 cells and 79 μL min^−1 10^−6 cells, respectively.

In the case of `C=C(CC(=O)OC)C(=O)OC` [dimethyl itaconate, reference compound], the EC50 in data set [1] (setting [8]) and in data set [1] (setting [7]) was 21.4 µM throughout. Further, the Emax in data set [1] (setting [9]) and in data set [1] (setting [6]) was 137% in each case.

As for `COC(=O)/C=C/C(=O)OC` [dimethyl fumarate, reference compound], the half-maximal effective concentration (EC50) in data set [1] (setting [8]) and in data set [1] (setting [7]) was 5.6 µM throughout. In addition, the Emax in data set [1] (setting [9]) and in data set [1] (setting [6]) was 102% each time.

Turning to `C=C(CC(=O)OCCCCCCCC)C(=O)OC1COC1` [Example 4, 4-octyl 1-(oxetan-3-yl) 2-methylenesuccinate], the Emax in data set [1] (setting [6]) was 181%. The EC50 in data set [1] (setting [7]) worked out at 8.3 µM.

As for `C=C(CC(=O)OCCCOc1ccccc1)C(=O)OCCC(=O)O` [Example 86, 3-((2-methylene-4-oxo-4-(3-phenoxypropoxy)butanoyl)oxy)propanoic acid], in data set [1] (setting [6]), the Emax was determined as 91%. The EC50 in data set [1] (setting [7]) came to 21 µM. For the same compound, the half-life at 10 μM in data set [2] turned out to be 31 min. Besides, in data set [3], the “CIint (μL min^−1 10^−6 cells)” value is given as 44 μL min^−1 10^−6 cells.
